{"source": "patent US20070292396A1", "about": "“COMBINATION THERAPY WITH ONCOLYTIC ADENOVIRUS” (priority 2006, published 2007)", "key": {"[1]": {"tested_on": "U-87 MG and U-251 MG human glioma cells", "assay": "Cell cycle analysis (DNA content, flow cytometry), Delta-24 and CPT-11", "format": "cell-based", "conditions": "CPT-11 4 μmol/L, alone or 48 hours after 10 MOIs Delta-24", "description": "(§1) Cell cycle analysis. The DNA content was measured in samples of 10^6 cells that had been infected with 10 MOIs of Delta-24 or UVi Delta-24 or had been mock infected. Forty-eight hours later, cultures were treated with CPT-11 (4 μmol/L) or vehicle. Cells were trypsinized 3 to 5 days after drug treatment, fixed in 70% ice-cold ethanol, and incubated with propidium iodide (5 μg/mL) and RNase A (1 μg/mL) for 20 minutes at 37° C. All DNA content measurements were done with an EPICS XL-MCL cytometer (Coulter Corp., Hialeah, Fla.) equipped with an air-cooled argon ion laser emitting 488 nm at 15 mW. A multicycle program (Phoenix Flow System; Phoenix Controls Corp., San Diego, Calif.) was used for data analysis. Cell viability assays. The chemosensitivity of the treated glioma cells was assessed by using the tetrazolium salt 3-(4,5-dimethylthiazol-2-yl)-2,5-diphenyltetrazolium bromide (Sigma-Aldrich) to measure cell viability. For this assay, 2×10^3 cells per well were seeded in 96-well microtiter plates and infected 24 hours later with Delta-24 (at 1, 2.5, 5, or 10 MOs) or Uvi Delta-24 (10 MOs) or were mock infected. […] The plates were then incubated for an additional 4 hours and then read on a Spectramax 190 microplate reader (Molecular Devices, Sunnyvale, Calif.) at a test wavelength of 570 nm."}, "[2]": {"tested_on": "U-87 MG human glioma xenograft", "assay": "Intracranial human glioma xenograft, Delta-24/CPT-11 sequential treatment", "format": "in vivo, athymic mice", "conditions": "Delta-24 1.5×10^8 viral particles intratumoral day 3; CPT-11 5 mg/kg i.p. days 7, 12, 20; control median survival 27 days", "description": "Animal model. To assess the potential therapeutic relevance of the findings from the in vitro studies, we tested the Delta-24/CPT-11 sequential treatment in an in vivo model of a human glioma xenograft implanted intracranially. The U-87 MG cell line was selected as an exemplary cell line because it produces gliomas in nude mice with highly predictable growth kinetics and well-characterized pathologic features (Lal et al., 2000). To perform a reliable multiple-dose experiment, an implantable guide-screw system was developed that allows for multiple, precise intratumoral administrations of a therapeutic agent(s) (Lal et al., 2000) and has been validated for testing the antiglioma effect of Delta-24 (Fueyo et al., 2003). In this study, 5×10^5 cells of the U-87 MG human glioma cell line were engrafted in the caudate nucleus of athymic mice (Harlan- Sprague-Dawley, Inc., Indianapolis, Ind.). On day 3 after cell implantation, animals were treated with a single intratumoral injection of Delta-24 or UVi Delta-24 (1.5×10^8 viral particles in 5 μL). […] H&E-stained slides were analyzed for evidence of tumor, necrosis, and viral nuclear inclusions. […]\nStatistical analyses. […] The in vivo anticancer effect of different treatments was assessed by plotting survival curves according to the Kaplan-Meier method, and groups were compared using the log-rank test."}, "[3]": {"tested_on": "U-87 MG and U-251 MG glioma cells", "assay": "Cell viability assay (MTT), CPT-11 and Delta-24, results stated for both cell lines", "format": "cell-based, human", "description": "as §1, with “viability. […] Forty-eight hours after adenoviral treatment, the” for “viability. For this assay, 2×10^3”, “cells” for “cells per well”, “were treated” for “were seeded in 96-well microtiter plates and infected 24 hours later”, “with various concentrations of CPT-11. Triplicate wells” for “with Delta-24 (at 1, 2.5, 5, or 10 MOs) or Uvi Delta-24 (10 MOs) or”, “were used for each condition.” for “were mock infected.”"}, "U-251 MG cells": {"tested_on": "U-251 MG cells", "assay": "Cell viability assay (MTT), CPT-11 after adenoviral infection", "format": "cell-based", "conditions": "Homo sapiens, U-251, 48 h, CPT-11 added 48 hours later", "description": "(§2) Cell cycle analysis. The DNA content was measured in samples of 10^6 cells that had been infected with 10 MOIs of Delta-24 or UVi Delta-24 or had been mock infected. Forty-eight hours later, cultures were treated with CPT-11 (4 μmol/L) or vehicle. Cells were trypsinized 3 to 5 days after drug treatment, fixed in 70% ice-cold ethanol, and incubated with propidium iodide (5 μg/mL) and RNase A (1 μg/mL) for 20 minutes at 37° C. All DNA content measurements were done with an EPICS XL-MCL cytometer (Coulter Corp., Hialeah, Fla.) equipped with an air-cooled argon ion laser emitting 488 nm at 15 mW. A multicycle program (Phoenix Flow System; Phoenix Controls Corp., San Diego, Calif.) was used for data analysis. Cell viability assays. The chemosensitivity of the treated glioma cells was assessed by using the tetrazolium salt 3-(4,5-dimethylthiazol-2-yl)-2,5-diphenyltetrazolium bromide (Sigma-Aldrich) to measure cell viability. For this assay, 2×10^3 cells per well were seeded in 96-well microtiter plates and infected 24 hours later with Delta-24 (at 1, 2.5, 5, or 10 MOs) or Uvi Delta-24 (10 MOs) or were mock infected. Forty-eight hours after adenoviral treatment, the cells were treated with various concentrations of CPT-11. Triplicate wells were used for each condition. Sixteen wells seeded with untreated glioma cells were used as a viability control, and 16 wells containing only complete medium were used as a control for nonspecific dye reduction. Medium was removed 72 hours after drug treatment, and 100 μL 3-(4,5-dimethylthiazol-2-yl)-2,5-diphenyltetrazolium bromide solution (1 mg/mL) was added to each well. The plates were then incubated for an additional 4 hours and then read on a Spectramax 190 microplate reader (Molecular Devices, Sunnyvale, Calif.) at a test wavelength of 570 nm."}, "U-87 MG cells": {"tested_on": "U-87 MG cells", "assay": "Cell viability assay (MTT), CPT-11 after adenoviral infection", "format": "cell-based", "conditions": "Homo sapiens, 48 h", "description": "as §2"}, "U87-MG xenografts": {"tested_on": "U87-MG xenografts", "assay": "Intracranial glioma xenograft, ICOVIR-5 in combination with RAD001 or TMZ", "format": "in vivo, athymic mice", "conditions": "ICOVIR-5 3×10^7 pfu/mouse intratumoral day 3, 5, 7; RAD001 5 mg/kg/d; TMZ 7.5 mg/kg/5 days; control 30.5 days", "description": "Animal Studies. U87 MG human glioma cells (5×10^5) were engrafted into the caudate nucleus of athymic mice using a guide-screw system, as previously described (Lal, 2000). The inventors performed three independent experiments using 10 animals per group in each experiment. On days 3, 5, and 7 after implantation of tumor cells, animals were treated with 5 μl intratumoral injections of ICOVIR-5, PBS or adenovirus control (all 3×10^8 pfu/ml). Animals showing general or local symptoms of toxicity were killed. Surviving animals were killed 140 days after tumor implantation. Brains were then removed, fixed in 4% formaldehyde for 24 hours at room temperature, and embedded in paraffin. Hematoxylin-and-eosin-stained sections were evaluated for evidence of tumor, necrosis, and viral nuclear inclusions. The largest (a) and the smallest (b) diameters of the tumors were measures, and these measurements were used in the calculation of tumor volume using the formula a×b2×0.4 (Attia, 1966). […]\nStatistical Analysis. […] Data are expressed as mean±SD or 95% confidence intervals (CIs). The in vivo cytopathic effect of ICOVIR-5 on human glioma xenografts was assessed by plotting survival curves according to the Kaplan-Meier method. […]"}, "U-87 MG cell line": {"tested_on": "U-87 MG cell line", "assay": "In vitro combination of ICOVIR-5 with TMZ or RAD001", "format": "cell-based, human"}}, "note": "pIC50: −log10 of the molar value. Where two headings read alike, the source gives them in different places."}
{"smiles": "CCc1c2c(nc3ccc(OC(=O)N4CCC(N5CCCCC5)CC4)cc13)-c1cc3c(c(=O)n1C2)COC(=O)[C@]3(O)CC", "note": "[CPT-11, irinotecan]", "values": [{"measurement": "cells in the G2-M phase", "setting": "[1]", "result": "> 55 % of the cells in culture"}, {"measurement": "extension of survival (average) over control", "setting": "[2]", "result": 4, "unit": "days"}, {"measurement": "pIC50", "setting": "[3]; Homo sapiens, read-out: IC50 for CPT-11, both U-87 MG and U-251 MG cells infected with 2 MOIs of Delta-24", "result": 5.60}, {"measurement": "inhibition of cell proliferation", "setting": "[3]; both cell lines, CPT-11 alone", "result": "inhibited cell proliferation in a concentration dependent fashion"}, {"measurement": "pIC50", "setting": "U-251 MG cells; read-out: IC50 dose of CPT-11, U-251 MG cells infected with Delta-24 at 10 MOIs", "result": 6.00}, {"measurement": "pIC50", "setting": "U-251 MG cells; read-out: IC50 dose of CPT-11, UVi Delta-24-infected U-251 MG cells", "result": 5.14}, {"measurement": "pIC50", "setting": "U-87 MG cells; read-out: IC50 dose of CPT-11, U-87 MG cells infected with Delta-24 at 10 MOIs, CPT-11 added 48 hours later", "result": 5.82}, {"measurement": "pIC50", "setting": "U-87 MG cells; read-out: IC50 dose of CPT-11, U-87 MG cells infected with UVi Delta-24, CPT-11 added 48 hours later", "result": 5.47}]}
{"smiles": "CO[C@H]1C[C@@H]2CC[C@@H](C)[C@@](O)(O2)C(=O)C(=O)N2CCCC[C@H]2C(=O)O[C@H]([C@H](C)C[C@@H]2CC[C@@H](OCCO)[C@H](OC)C2)CC(=O)[C@H](C)/C=C(\\C)[C@@H](O)[C@@H](OC)C(=O)[C@H](C)C[C@H](C)/C=C/C=C/C=C/1C", "note": "[RAD001]", "values": [{"measurement": "mean survival", "setting": "U87-MG xenografts", "result": 49, "unit": "days"}, {"measurement": "effect of drug on adenoviral replication in vitro (fiber expression, western blot and RT-QT-PCR)", "setting": "U-87 MG cell line", "result": "neither RAD001 nor TMZ suppressed adenoviral replication in vitro"}]}
{"smiles": "Cn1nnc2c(C(N)=O)ncn2c1=O", "note": "[TMZ, temozolomide]", "values": [{"measurement": "mean survival", "setting": "U87-MG xenografts", "result": 35.5, "unit": "days"}]}
